Results from PMC12406203 (Journal of Medicinal Chemistry, 2025).

Key:
Assay in all cases: KINOMEscan
Format in all cases: binding
[1] = target: T1, ACVR1B (Homo sapiens, UniProt P36896)
T1 construct: purchased Eurofins DiscoverX, LLC; host or cells: E. coli BL21-derived (T7 phage) or HEK-293
T1 sequence (P36896 24-505): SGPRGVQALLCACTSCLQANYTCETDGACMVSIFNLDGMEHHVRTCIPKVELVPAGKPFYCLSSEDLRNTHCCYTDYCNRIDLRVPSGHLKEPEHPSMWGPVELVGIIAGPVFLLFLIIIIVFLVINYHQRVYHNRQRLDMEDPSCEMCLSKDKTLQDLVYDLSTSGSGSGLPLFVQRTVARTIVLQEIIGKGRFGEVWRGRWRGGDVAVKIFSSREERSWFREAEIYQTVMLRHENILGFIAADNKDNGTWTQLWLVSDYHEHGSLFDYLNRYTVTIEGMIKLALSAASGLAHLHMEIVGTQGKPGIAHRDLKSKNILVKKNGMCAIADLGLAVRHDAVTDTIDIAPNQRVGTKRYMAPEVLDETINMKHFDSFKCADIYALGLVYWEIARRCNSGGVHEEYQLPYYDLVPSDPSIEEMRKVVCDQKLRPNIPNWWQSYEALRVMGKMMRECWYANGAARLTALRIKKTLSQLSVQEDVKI
Experimental: (§1) The kinase inhibition profile of compounds 94 and 95 was assessed against 103 protein kinases by Eurofins DiscoverX, LLC., using the KINOMEscan assay. Kinase-tagged T7 phage strains were grown in parallel in 24-well blocks in an E. coli host derived from the BL21 strain. E. coli were grown to log-phase and infected with T7 phage from a frozen stock (multiplicity of infection = 0.4) and incubated with shaking at 32 °C until lysis (90–150 min). The lysates were centrifuged (6000g) and filtered (0.2 μm) to remove cell debris. The remaining kinases were produced in HEK-293 cells and subsequently tagged with DNA for qPCR detection. […] The liganded beads were blocked with excess biotin and washed with blocking buffer (SeaBlock (Pierce), 1% BSA, 0.05% Tween 20, 1 mM DTT) to remove unbound ligand and to reduce nonspecific phage binding. […] Test compounds were prepared as 100× stocks in 100% DMSO and directly diluted into the assay. All reactions were performed in polypropylene 384-well plates in a final volume of 0.02 mL. […] The kinase concentration in the eluates was measured by qPCR.
(§2) The compound(s) were screened at the concentration(s) requested, and results for primary screen binding interactions are reported as RA (%), where lower numbers indicate stronger hits in the matrix. RA=(testcompoundsignal−PCsignal/NCsignal−PCsignal)×100

[2] = target: T2, JAK2(JH1domain-catalytic) (Homo sapiens, UniProt O60674)
T2 construct: JAK2(JH1domain-; purchased Eurofins DiscoverX, LLC; host or cells: E. coli (T7 phage) or HEK-293
Experimental: as §1, §2

[3] = target: T3, PAK2 (Homo sapiens, UniProt Q13177)
T3 construct: purchased Eurofins DiscoverX, LLC; host or cells: E. coli (BL21-derived, T7 phage) or HEK-293
Experimental: as §1, §2

[4] = target: T4, PDGFRB (Homo sapiens, UniProt P09619)
T4 construct: purchased Eurofins DiscoverX, LLC; host or cells: E. coli BL21-derived host (T7 phage) or HEK-293
Experimental: as §1, §2

[5] = target: T5, PIK3C2B (Homo sapiens, UniProt O00750)
T5 construct: purchased Eurofins DiscoverX, LLC; host or cells: E. coli BL21-derived host (T7 phage) or HEK-293
Experimental: as §1, §2

[6] = target: T6, TYK2(JH1domain-catalytic) (Homo sapiens, UniProt P29597)
T6 construct: TYK2(JH1domain-; purchased Eurofins DiscoverX, LLC; host or cells: E. coli BL21-derived host (T7 phage) or HEK-293
T6 sequence (P29597 897-1176 limits assumed): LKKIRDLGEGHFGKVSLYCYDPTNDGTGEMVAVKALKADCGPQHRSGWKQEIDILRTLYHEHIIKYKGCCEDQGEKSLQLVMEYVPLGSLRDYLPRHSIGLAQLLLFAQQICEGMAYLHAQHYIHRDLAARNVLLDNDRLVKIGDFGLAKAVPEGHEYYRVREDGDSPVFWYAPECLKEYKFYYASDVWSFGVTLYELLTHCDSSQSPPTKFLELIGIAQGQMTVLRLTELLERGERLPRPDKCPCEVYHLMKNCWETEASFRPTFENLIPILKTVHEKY
Experimental: as §1, §2

[7] = target: T7, ULK2 (Homo sapiens, UniProt Q8IYT8)
T7 construct: purchased Eurofins DiscoverX, LLC; host or cells: E. coli BL21-derived host (T7 phage) or HEK-293
T7 sequence (Q8IYT8 1-1036): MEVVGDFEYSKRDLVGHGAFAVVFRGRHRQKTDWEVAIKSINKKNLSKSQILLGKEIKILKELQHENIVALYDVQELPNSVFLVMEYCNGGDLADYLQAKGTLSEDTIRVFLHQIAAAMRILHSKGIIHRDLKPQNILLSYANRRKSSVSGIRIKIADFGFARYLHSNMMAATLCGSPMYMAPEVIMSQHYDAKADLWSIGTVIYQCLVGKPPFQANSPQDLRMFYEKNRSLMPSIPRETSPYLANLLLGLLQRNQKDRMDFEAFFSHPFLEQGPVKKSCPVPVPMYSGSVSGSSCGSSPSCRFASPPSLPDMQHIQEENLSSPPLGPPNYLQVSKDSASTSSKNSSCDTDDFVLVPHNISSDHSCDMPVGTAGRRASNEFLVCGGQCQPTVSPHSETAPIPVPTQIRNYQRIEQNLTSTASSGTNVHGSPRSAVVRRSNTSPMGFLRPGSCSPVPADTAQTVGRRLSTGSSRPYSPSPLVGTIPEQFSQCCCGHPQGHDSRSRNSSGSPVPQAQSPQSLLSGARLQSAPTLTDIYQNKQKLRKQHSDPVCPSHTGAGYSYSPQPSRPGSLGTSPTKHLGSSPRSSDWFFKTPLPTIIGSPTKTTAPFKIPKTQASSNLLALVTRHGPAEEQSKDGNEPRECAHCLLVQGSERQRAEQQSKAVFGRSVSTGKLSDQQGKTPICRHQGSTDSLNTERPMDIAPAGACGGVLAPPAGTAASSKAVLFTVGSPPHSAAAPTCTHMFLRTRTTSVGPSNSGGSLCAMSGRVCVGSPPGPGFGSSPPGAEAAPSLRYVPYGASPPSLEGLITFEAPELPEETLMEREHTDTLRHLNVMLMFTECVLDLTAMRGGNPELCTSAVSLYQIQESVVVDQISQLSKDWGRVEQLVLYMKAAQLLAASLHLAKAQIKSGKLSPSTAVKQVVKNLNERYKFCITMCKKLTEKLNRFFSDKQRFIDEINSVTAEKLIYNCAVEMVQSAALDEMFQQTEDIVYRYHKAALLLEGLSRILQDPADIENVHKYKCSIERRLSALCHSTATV
Experimental: as §1, §2

T4 sequence (P09619 33-1106): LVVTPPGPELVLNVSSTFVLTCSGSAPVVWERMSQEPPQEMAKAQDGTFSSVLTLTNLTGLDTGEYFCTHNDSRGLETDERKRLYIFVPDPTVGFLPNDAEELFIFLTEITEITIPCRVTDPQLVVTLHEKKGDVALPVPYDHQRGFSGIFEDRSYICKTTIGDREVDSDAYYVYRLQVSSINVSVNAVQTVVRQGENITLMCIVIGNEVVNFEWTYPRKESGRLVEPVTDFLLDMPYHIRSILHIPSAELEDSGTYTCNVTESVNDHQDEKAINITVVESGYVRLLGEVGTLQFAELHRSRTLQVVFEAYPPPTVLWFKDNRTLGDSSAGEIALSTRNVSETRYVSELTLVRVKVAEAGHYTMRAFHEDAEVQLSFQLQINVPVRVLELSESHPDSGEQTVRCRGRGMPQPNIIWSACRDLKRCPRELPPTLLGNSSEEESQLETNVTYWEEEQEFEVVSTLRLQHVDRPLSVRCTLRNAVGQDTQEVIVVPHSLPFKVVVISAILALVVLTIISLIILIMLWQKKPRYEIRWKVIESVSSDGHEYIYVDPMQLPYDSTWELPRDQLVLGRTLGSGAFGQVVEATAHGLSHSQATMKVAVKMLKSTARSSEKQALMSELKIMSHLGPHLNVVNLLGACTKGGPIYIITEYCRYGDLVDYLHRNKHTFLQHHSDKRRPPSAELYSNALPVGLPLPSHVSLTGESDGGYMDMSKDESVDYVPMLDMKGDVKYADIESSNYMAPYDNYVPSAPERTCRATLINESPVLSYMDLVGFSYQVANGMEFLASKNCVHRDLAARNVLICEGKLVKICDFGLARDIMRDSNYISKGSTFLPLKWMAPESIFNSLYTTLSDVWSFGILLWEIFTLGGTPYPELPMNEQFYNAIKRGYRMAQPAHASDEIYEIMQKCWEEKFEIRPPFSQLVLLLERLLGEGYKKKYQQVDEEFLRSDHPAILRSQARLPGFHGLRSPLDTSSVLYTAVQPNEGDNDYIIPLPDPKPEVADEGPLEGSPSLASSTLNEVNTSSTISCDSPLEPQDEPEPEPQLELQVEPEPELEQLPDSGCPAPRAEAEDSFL
T5 sequence (O00750 whole entry): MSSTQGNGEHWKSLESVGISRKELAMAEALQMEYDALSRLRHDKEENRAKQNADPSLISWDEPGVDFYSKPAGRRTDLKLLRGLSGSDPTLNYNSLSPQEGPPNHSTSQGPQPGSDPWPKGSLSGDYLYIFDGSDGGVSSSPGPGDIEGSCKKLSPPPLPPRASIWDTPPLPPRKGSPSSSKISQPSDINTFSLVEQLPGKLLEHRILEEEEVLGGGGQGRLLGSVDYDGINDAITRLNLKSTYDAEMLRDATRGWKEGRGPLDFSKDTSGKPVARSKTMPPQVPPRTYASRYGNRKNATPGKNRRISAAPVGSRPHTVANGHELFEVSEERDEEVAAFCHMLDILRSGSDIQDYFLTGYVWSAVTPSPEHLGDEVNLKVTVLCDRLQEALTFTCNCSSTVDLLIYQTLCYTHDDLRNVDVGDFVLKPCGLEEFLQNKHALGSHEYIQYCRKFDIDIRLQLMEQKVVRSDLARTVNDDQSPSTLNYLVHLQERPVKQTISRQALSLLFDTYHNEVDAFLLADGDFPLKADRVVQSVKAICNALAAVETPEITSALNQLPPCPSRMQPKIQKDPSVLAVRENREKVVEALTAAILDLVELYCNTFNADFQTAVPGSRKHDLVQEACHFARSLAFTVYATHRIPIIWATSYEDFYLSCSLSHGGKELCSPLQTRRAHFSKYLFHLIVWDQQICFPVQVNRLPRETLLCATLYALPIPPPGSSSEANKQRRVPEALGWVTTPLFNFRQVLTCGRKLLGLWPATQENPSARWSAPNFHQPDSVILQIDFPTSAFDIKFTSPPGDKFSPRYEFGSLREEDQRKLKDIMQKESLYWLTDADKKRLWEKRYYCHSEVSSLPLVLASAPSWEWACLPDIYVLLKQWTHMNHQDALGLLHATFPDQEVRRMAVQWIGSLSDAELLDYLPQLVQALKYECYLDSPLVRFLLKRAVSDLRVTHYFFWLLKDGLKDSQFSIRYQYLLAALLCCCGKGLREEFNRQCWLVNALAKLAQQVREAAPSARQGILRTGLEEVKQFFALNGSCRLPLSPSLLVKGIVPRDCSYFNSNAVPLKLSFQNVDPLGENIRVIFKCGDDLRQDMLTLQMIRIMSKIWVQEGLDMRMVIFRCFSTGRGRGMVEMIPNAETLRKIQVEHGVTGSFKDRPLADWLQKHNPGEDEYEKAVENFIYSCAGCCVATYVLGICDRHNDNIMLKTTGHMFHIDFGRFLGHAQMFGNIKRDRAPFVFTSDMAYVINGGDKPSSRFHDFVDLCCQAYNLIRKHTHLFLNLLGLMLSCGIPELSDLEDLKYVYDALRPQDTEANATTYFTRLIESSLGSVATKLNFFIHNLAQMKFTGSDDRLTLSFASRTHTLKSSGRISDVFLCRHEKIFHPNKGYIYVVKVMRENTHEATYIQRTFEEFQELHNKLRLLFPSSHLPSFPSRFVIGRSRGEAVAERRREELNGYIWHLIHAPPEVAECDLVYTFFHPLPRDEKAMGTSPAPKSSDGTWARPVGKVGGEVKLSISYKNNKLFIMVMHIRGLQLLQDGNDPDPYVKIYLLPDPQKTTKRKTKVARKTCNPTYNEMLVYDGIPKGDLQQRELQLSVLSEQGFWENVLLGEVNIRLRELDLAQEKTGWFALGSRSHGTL
T3 sequence (Q13177 whole entry): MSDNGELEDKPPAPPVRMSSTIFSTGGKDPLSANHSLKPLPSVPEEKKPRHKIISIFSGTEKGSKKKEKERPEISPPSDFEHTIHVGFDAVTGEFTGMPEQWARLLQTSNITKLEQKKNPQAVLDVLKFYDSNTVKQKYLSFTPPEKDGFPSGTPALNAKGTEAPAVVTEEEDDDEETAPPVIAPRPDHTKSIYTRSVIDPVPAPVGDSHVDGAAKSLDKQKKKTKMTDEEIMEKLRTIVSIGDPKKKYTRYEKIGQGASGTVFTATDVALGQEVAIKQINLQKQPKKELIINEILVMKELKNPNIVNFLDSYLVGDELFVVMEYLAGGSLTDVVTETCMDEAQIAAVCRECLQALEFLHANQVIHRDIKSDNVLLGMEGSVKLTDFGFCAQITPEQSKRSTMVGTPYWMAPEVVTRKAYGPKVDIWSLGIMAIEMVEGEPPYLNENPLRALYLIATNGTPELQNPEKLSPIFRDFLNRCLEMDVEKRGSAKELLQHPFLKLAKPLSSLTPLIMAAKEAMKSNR
T2 sequence (O60674 849-1124 limits assumed): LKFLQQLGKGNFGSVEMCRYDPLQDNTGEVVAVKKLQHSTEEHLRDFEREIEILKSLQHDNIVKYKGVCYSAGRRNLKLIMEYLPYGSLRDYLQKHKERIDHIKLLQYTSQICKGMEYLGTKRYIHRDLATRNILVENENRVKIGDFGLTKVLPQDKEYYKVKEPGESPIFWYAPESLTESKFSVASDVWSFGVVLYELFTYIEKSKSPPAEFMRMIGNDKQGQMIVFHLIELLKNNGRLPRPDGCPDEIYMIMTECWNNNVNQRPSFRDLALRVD

Row | Structure (SMILES) | RA @ 1000nM [1] [%] | RA @ 10000nM [1] [%] | RA @ 1000nM [2] [%] | RA @ 10000nM [2] [%] | RA @ 1000nM [3] [%] | RA @ 10000nM [3] [%] | RA @ 1000nM [4] [%] | RA @ 10000nM [4] [%] | RA @ 1000nM [5] [%] | RA @ 10000nM [5] [%] | RA @ 1000nM [6] [%] | RA @ 10000nM [6] [%] | RA @ 1000nM [7] [%] | RA @ 10000nM [7] [%]
1 | CN(C)CCNC(=O)c1cc2c(cnn2CC2CCCCC2)cc1Cc1ccc(F)cc1F [Compound 95, 1-(Cyclohexylmethyl)-5-(2,4-difluorobenzyl)-N-(2-(dimethylamino)ethyl)-1H-indazole-6-carboxamide] | 100 | 100 | 100 | 100 | 100 | 95 | 100 | 96 | 91 | 91 | 89 | 75 | 77 | 75
2 | CC(C)Cn1ncc2cc(Cc3ccc(F)cc3F)c(C(=O)NCCN(C)C)cc21 [Compound 94, 5-(2,4-Difluorobenzyl)-N-(2-(dimethylamino)ethyl)-1-isobutyl-1H-indazole-6-carboxamide] | 100 | 100 | 98 | 100 | 100 | 97 | 100 | 97 | 90 | 82 | 78 | 79 | 71 | 88
